Values joined by “and” are separate entries in the source; they are usually repeats but may differ in a detail not shown here. Equal values may be shown once. Read-outs that look alike come from different tables or passages of the source.
Key:
SARS-CoV-2 WA1/2020 = type: in vivo, ferret (Mustela putorius furo); conditions: for Transform of Nasal Lavage RNA copies, Mean 2 (treated group) / Transform of Nasal Lavage RNA copies, Mean Diff. (Vehicle vs. treated): Fig 3f, Row 5 (time); as to Transform of Nasal Lavage RNA copies, Mean 2 (treated group): unit not given here; as to Transform of Nasal Lavage RNA copies, Mean Diff. (Vehicle vs. treated): unit not given here
in vitro [1] = conditions: African green monkey, % cell viability, 72 h
[2] = test system: SARS-CoV-2 VOC γ (BZ/2021); type: in vivo, ferret (Mustela putorius furo)
BHK-21 cells = assay: Cytotoxicity assay (PrestoBlue), BHK-21; conditions: 72 h
in vitro [3] = conditions: male, human, % cell viability, M6 HAE, 0.046 µM
[4] = Fig 4b, […], 10 mg/kg b.i.d., Time 0.0
[5] = Fig 4b, […], 10 mg/kg b.i.d., Time 0.5
[6] = Fig 4b, […], 10 mg/kg b.i.d., Time 1.0
[7] = Fig 4b, […], 10 mg/kg b.i.d., Time 1.5
[8] = Fig 4b, […], 10 mg/kg b.i.d., Time 2.0
[9] = Fig 4b, […], 10 mg/kg b.i.d., Time 2.5
[10] = Fig 4b, […], 10 mg/kg b.i.d., Time 3.0
[11] = Fig 4b, […], 10 mg/kg b.i.d., Time 3.5
[12] = Fig 4b, […], 10 mg/kg b.i.d., Time 4.0
[13] = Fig 4b, […], 10 mg/kg b.i.d., all 9 time points
[14] = headed Fig 3c, […], 10 mg/kg b.i.d., Time 0
[15] = headed Fig 3c, […], 10 mg/kg b.i.d., Time 1
[16] = headed Fig 3c, […], 10 mg/kg b.i.d., Time 2
[17] = headed Fig 3c, […], 10 mg/kg b.i.d., Time 3
[18] = headed Fig 3c, […], 10 mg/kg b.i.d., Time 4
[19] = headed Fig 3c, […], 10 mg/kg b.i.d., all 5 time points

Structure (SMILES): CC(C)C(=O)OCC1OC(C#N)(c2ccc3c(N)ncnn23)C(OC(=O)C(C)C)C1OC(=O)C(C)C (stereo not shown) [GS-621763]
- Transform of Nasal Lavage RNA copies, Mean 2 (treated group) (SARS-CoV-2 WA1/2020; 3mg/kg b.i.d.): 5.662
- Transform of Nasal Lavage RNA copies, Mean Diff. (Vehicle vs. treated) (SARS-CoV-2 WA1/2020; 3mg/kg b.i.d.): 0.07178
- Transform of Nasal Lavage RNA copies, Mean 2 (treated group) (SARS-CoV-2 WA1/2020; 10mg/kg b.i.d.): 3.751
- Transform of Nasal Lavage RNA copies, Mean Diff. (Vehicle vs. treated) (SARS-CoV-2 WA1/2020; 10mg/kg b.i.d.): 1.983
- reduction of virus burden in the turbinates (SARS-CoV-2 WA1/2020; in vivo): one order of magnitude
- viral RNA copies in nasal lavages and turbinates vs vehicle (SARS-CoV-2 WA1/2020; in vivo): statistically significant mean reduction
- virus burden in the turbinates (SARS-CoV-2 WA1/2020; in vivo): approached the limit of detection
- virus load in nasal lavages vs vehicle (SARS-CoV-2 WA1/2020; in vivo): approximately one order of magnitude lower
- virus shedding in nasal lavages (SARS-CoV-2 WA1/2020; in vivo): near-detection level
- viability at 72 h, 1.235 µM (in vitro [1]; VeroE6, 1.235 µM): 87%
- viability at 72 h, 3.704 µM (in vitro [1]; VeroE6, 3.704 µM): 87%
- viability at 72 h, 33.333 µM (in vitro [1]; VeroE6, 33.333 µM): 101%
- Nasal lavage titer, Mean Diff. Vehicle - GS-621763 [2, 4]: 0
- Nasal lavage titer, group mean (Mean 2; Transform of Brazil - Nasal Lavage Titer) [2, 4]: 0.699
- Nasal lavage titer, Mean Diff. Vehicle - GS-621763 [2, 5]: 0
- Nasal lavage titer, group mean (Mean 2; Transform of Brazil - Nasal Lavage Titer) [2, 5]: 0.699
- Nasal lavage titer, Mean Diff. Vehicle - GS-621763 [2, 6]: 0
- Nasal lavage titer, group mean (Mean 2; Transform of Brazil - Nasal Lavage Titer) [2, 6]: 0.699
- Nasal lavage titer, Mean Diff. Vehicle - GS-621763 [2, 7]: 0.7768
- Nasal lavage titer, group mean (Mean 2; Transform of Brazil - Nasal Lavage Titer) [2, 7]: 0.699
- Nasal lavage titer, Mean Diff. Vehicle - GS-621763 [2, 8]: 1.969
- Nasal lavage titer, group mean (Mean 2; Transform of Brazil - Nasal Lavage Titer) [2, 8]: 0.8495
- Nasal lavage titer, Mean Diff. Vehicle - GS-621763 [2, 9]: 2.801
- Nasal lavage titer, group mean (Mean 2; Transform of Brazil - Nasal Lavage Titer) [2, 9]: 0.7742
- Nasal lavage titer, Mean Diff. Vehicle - GS-621763 [2, 10]: 2.882
- Nasal lavage titer, group mean (Mean 2; Transform of Brazil - Nasal Lavage Titer) [2, 10]: 0.7742
- Nasal lavage titer, Mean Diff. Vehicle - GS-621763 [2, 11]: 2.92
- Nasal lavage titer, group mean (Mean 2; Transform of Brazil - Nasal Lavage Titer) [2, 11]: 0.699
- Nasal lavage titer, Mean Diff. Vehicle - GS-621763 [2, 12]: 2.821
- Nasal lavage titer, group mean (Mean 2; Transform of Brazil - Nasal Lavage Titer) [2, 12]: 0.699
- Nasal lavage titer, column mean of GS-621763 over all times [2, 13]: 0.7324
- Nasal lavage titer, difference between column means (Vehicle - GS-621763) [2, 13]: 1.574
- Nasal turbinate RNA, Mean Diff. Vehicle vs. GS-621763 ([2]; Fig 4e, […], 10 mg/kg b.i.d.): 3.96
- Nasal turbinate RNA, group mean of GS-621763-treated source animals (Transform of Brazil - Nasal Turbinate RNA) ([2]; Fig 4e, […], 10 mg/kg b.i.d.): 5.208
- Turbinate titers, Mean Diff. Vehicle vs. GS-621763 ([2]; Fig 4d, […], 10 mg/kg b.i.d.): 3.511
- Turbinate titers, group mean of GS-621763-treated source animals (Transform of Brazil - Turbinate Titers) ([2]; Fig 4d, […], 10 mg/kg b.i.d.): 0.9542
- Nasal lavage RNA, Mean Diff. Vehicle - GS-621763 [2, 14]: 0
- Nasal lavage RNA, group mean (Mean 2; Transform of Brazil - Nasal Lavage RNA) [2, 14]: 0
- Nasal lavage RNA, Mean Diff. Vehicle - GS-621763 [2, 15]: 0.6874
- Nasal lavage RNA, group mean (Mean 2; Transform of Brazil - Nasal Lavage RNA) [2, 15]: 2.265
- Nasal lavage RNA, Mean Diff. Vehicle - GS-621763 [2, 16]: 3.062
- Nasal lavage RNA, group mean (Mean 2; Transform of Brazil - Nasal Lavage RNA) [2, 16]: 2.426
- Nasal lavage RNA, Mean Diff. Vehicle - GS-621763 [2, 17]: 4.178
- Nasal lavage RNA, group mean (Mean 2; Transform of Brazil - Nasal Lavage RNA) [2, 17]: 2.173
- Nasal lavage RNA, Mean Diff. Vehicle - GS-621763 [2, 18]: 3.536
- Nasal lavage RNA, group mean (Mean 2; Transform of Brazil - Nasal Lavage RNA) [2, 18]: 2.653
- Nasal lavage RNA, column mean of GS-621763 over all times [2, 19]: 1.903
- Nasal lavage RNA, difference between column means (Vehicle - GS-621763) [2, 19]: 2.293
- Infectious virus titer in nasal lavage (Fig 4B) ([2]; in vivo, 10 mg/kg): 5 pfu and 10 pfu
- SARS-CoV-2 RNA copies in lungs (Fig 4G) ([2]; in vivo, 10 mg/kg): not detected
- lowering of viral RNA copies in nasal lavages and turbinates ([2]; in vivo, po, 10 mg/kg): over three orders of magnitude
- shed virus burden and tissue titers ([2]; in vivo, po, 10 mg/kg): undetectable levels
- % cell viability (BHK-21 cells; BHK-21, 0.046 µM, 0.046 µM): 79%
- % cell viability (BHK-21 cells; BHK-21, 1.235 µM, 1.235 µM): 92%
- % cell viability (BHK-21 cells; BHK-21, 3.704 µM, 3.704 µM): 96% and 93%
- % cell viability (BHK-21 cells; BHK-21, 33.333 µM, 33.333 µM): 95%
- % cell viability (BHK-21 cells; BHK-21, 100 µM, 100 µM): 84%
- viability at 72 h, 0.046 µM (in vitro [3]): 92%

Reference: PMC8571282 (Nature Communications, 2021)
